This note sets out measurements from ChEMBL document CHEMBL5210307, “Affinity Biochemical Literature for EUbOPEN Chemogenomics Library wave 3” (2023).

The target of assay [1] is Fatty-acid amide hydrolase 1 (Homo sapiens, UniProt O00519). Briefly: Affinity Biochemical interaction (Binding assay) EUB0000540a FAAH. Further details: mode of action Negative control for PF-04457845, recommended concentration 1 uM.
Assay [2] has as its target Calcium/calmodulin-dependent protein kinase kinase 2 (Homo sapiens, UniProt Q96RR4). In words: Affinity Biochemical interaction (Enzymatic activity assay) EUB0000168b CAMKK2. Further details: mode of action Negative control for SGC-CAMKK2-1 (UNC-YL-36), recommended concentration 1 uM.
The next assay has as its target T1, Protein AF-9 (Homo sapiens, UniProt P42568).
T1 sequence (P42568 whole entry): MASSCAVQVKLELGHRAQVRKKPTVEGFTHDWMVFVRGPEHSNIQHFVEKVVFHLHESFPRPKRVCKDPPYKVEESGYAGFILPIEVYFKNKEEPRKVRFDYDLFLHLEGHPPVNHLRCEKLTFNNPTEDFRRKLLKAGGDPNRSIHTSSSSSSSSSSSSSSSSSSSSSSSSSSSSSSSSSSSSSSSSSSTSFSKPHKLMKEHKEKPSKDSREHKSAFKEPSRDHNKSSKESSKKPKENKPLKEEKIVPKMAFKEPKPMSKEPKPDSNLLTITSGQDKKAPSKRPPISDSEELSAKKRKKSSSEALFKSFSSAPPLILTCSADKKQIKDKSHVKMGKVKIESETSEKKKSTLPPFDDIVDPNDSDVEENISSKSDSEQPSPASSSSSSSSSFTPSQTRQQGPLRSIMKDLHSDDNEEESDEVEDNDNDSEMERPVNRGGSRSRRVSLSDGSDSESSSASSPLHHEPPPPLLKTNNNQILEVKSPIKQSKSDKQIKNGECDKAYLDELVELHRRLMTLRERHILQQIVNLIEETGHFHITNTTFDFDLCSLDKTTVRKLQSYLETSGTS
Briefly: Affinity Biochemical interaction (AlphaScreen assay) EUB0000283b MLLT3. The arrangement: mode of action Inhibitor, recommended concentration 1 uM. (In general: Bead proximity is the source of the signal in Alpha formats.)

In the next assay the target is Protein ENL (Homo sapiens, UniProt Q03111). Briefly: Affinity Biochemical interaction (AlphaScreen assay) EUB0000283b MLLT1. Further details: mode of action Inhibitor, recommended concentration 1 uM.
For assay [3], the target named is T2, Protein farnesyltransferase subunit beta (Homo sapiens, UniProt P49356). In words: Affinity Biochemical interaction (Scintillation proximity assay (SPA)) EUB0000736a FNTB. The arrangement: mode of action Negative control for ABT-100, recommended concentration 1 uM. In general terms: Scintillation proximity formats need no separation of bound from free tracer.

Assay [4] has as its target Transient receptor potential cation channel subfamily A member 1 (Homo sapiens, UniProt O75762). In words: Affinity Biochemical interaction (FLIPR-based Ca2+ assay (activated by 30 µM AITC)) EUB0000547a TRPA1. The arrangement: mode of action Negative control for A-079, recommended concentration 1 uM.
Assay [5] has as its target Histone acetyltransferase p300 (Homo sapiens, UniProt Q09472). Briefly: Affinity Biochemical interaction (TR-FRET assay (BHC domains)) EUB0000326a EP300.
Assay [6] has as its target T2, Protein farnesyltransferase subunit beta. Briefly: Affinity Biochemical interaction (Scintillation proximity assay (SPA)) EUB0000289c FNTB. The arrangement: mode of action Inhibitor, recommended concentration 1 uM.
The next assay addresses Angiopoietin-1 receptor (Homo sapiens, UniProt Q02763). Briefly: Affinity Biochemical interaction (KdELECT (DiscoverX)) EUB0000703a TEK. Further details: mode of action Negative control for BAY-826, recommended concentration 100 nM.
Assay [7] has as its target Hepatocyte growth factor receptor (Homo sapiens, UniProt P08581). In words: Affinity Biochemical interaction (Homogeneous Time Resolved Fluorescence Assay) EUB0000293b MET. The arrangement: mode of action Inhibitor, recommended concentration 1 uM.
Assay [8] has as its target 5'-AMP-activated protein kinase catalytic subunit alpha-1 (Homo sapiens, UniProt Q13131). Briefly: Affinity Biochemical interaction (Biochemical PRKAA1 assay (10 µM ATP)) EUB0000707a PRKAA1. Further details: mode of action Negative control for BAY-3827, recommended concentration 100 nM.
Assay [9] has as its target Sodium/hydrogen exchanger 1 (Homo sapiens, UniProt P19634). In words: Affinity Biochemical interaction (pHi change assay) EUB0000545a SLC9A1. Further details: mode of action Negative control for BI-9627, recommended concentration 1 uM.
The target in assay [10] is Bifunctional epoxide hydrolase 2 (Homo sapiens, UniProt P34913). Briefly: Affinity Biochemical interaction (Human soluble epoxide hydrolase inhibition) EUB0000541a EPHX2. The arrangement: mode of action Negative control for BI-1935, recommended concentration 100 nM.
In the next assay the target is Collagenase 3 (Homo sapiens, UniProt P45452). Briefly: Affinity Biochemical interaction (FRET assay) EUB0000727a MMP13. The arrangement: mode of action Negative control for BI-4394, recommended concentration 100 nM.
In another assay the target is Integrin alpha-L (Homo sapiens, UniProt P20701). Briefly: Affinity Biochemical interaction (ITGAL binding assay (inhibition of LFA-1 binding to ICAM-1)) EUB0000549a ITGAL. The arrangement: mode of action Negative control for BI-1950, recommended concentration 100 nM.
Another assay has as its target Fatty acid synthase (Homo sapiens, UniProt P49327). Briefly: Affinity Biochemical interaction (Human FAS enzyme assay (measuring consumption of NADPH)) EUB0000738a FASN. The arrangement: mode of action Negative control for BI 99179, recommended concentration 1 uM.
A further assay concerns the target Cannabinoid receptor 1 (Homo sapiens, UniProt P21554). Briefly: Affinity Biochemical interaction (Radioligand binding assay (CNR1, inverse agonism)) EUB0000316b CNR1. The arrangement: mode of action Negative control for MRL-650, recommended concentration 1 uM.
Assay [11] concerns the target Transient receptor potential cation channel subfamily M member 8 (Homo sapiens, UniProt Q7Z2W7). In words: Affinity Biochemical interaction (Enzymatic assay) EUB0000546a TRPM8. Further details: mode of action Negative control for PF-05105679, recommended concentration 1 uM.

T2 sequence (P49356 whole entry): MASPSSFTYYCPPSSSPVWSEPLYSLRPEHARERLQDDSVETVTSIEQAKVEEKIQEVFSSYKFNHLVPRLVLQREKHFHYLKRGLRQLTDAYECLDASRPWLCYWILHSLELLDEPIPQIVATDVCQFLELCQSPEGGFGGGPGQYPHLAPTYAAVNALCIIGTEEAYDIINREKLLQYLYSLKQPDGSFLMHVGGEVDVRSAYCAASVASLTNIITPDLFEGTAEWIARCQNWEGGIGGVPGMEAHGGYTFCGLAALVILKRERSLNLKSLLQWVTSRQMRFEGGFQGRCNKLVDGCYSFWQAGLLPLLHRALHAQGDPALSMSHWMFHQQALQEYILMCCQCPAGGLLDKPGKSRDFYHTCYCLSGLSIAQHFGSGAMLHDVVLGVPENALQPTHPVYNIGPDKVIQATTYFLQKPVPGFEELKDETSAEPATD
Calcium/calmodulin-dependent protein kinase kinase 2, sequence (Q96RR4 whole entry): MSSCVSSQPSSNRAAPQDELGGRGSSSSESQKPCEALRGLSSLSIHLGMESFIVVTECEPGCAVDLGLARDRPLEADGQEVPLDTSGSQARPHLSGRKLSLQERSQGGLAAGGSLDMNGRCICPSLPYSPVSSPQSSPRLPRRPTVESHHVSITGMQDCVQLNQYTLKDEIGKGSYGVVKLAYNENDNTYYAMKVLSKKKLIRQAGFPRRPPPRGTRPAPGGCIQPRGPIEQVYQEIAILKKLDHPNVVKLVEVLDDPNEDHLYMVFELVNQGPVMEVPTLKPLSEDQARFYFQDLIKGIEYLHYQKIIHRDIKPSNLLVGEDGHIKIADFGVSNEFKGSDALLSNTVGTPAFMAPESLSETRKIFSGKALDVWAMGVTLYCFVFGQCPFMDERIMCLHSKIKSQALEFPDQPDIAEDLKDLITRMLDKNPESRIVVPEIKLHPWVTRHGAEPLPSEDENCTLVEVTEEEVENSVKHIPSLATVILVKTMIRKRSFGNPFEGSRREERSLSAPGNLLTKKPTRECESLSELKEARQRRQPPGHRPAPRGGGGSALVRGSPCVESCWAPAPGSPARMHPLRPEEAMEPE
Transient receptor potential cation channel subfamily M member 8, sequence (Q7Z2W7 whole entry): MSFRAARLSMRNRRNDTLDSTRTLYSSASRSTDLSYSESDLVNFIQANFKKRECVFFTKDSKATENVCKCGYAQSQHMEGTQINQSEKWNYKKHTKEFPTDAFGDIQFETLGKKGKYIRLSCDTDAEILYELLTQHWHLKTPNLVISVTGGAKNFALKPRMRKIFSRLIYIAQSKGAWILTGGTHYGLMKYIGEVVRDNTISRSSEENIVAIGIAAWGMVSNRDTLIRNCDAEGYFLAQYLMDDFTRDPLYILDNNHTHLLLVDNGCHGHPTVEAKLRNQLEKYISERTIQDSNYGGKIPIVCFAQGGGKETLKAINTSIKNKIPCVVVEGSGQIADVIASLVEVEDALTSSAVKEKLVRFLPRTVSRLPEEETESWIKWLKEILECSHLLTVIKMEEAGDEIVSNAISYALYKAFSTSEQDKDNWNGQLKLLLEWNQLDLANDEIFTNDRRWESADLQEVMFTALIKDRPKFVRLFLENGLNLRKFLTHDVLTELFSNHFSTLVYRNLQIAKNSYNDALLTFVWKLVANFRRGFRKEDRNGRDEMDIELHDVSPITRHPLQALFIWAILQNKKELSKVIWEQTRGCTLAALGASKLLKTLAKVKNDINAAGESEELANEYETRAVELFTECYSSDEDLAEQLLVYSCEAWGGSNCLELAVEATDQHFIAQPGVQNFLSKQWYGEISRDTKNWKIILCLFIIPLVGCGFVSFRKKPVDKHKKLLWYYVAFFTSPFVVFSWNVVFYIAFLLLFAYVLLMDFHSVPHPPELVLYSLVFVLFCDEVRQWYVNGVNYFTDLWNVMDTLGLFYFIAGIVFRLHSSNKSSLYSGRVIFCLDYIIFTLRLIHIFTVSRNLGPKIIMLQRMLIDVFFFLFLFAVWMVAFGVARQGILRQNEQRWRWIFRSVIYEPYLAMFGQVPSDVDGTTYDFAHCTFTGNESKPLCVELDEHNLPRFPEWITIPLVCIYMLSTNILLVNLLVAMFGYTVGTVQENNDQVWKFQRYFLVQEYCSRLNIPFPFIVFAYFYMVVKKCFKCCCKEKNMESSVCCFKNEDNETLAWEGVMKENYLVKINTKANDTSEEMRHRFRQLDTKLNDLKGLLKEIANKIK
Histone acetyltransferase p300, sequence (Q09472 whole entry, the tested form may be a part): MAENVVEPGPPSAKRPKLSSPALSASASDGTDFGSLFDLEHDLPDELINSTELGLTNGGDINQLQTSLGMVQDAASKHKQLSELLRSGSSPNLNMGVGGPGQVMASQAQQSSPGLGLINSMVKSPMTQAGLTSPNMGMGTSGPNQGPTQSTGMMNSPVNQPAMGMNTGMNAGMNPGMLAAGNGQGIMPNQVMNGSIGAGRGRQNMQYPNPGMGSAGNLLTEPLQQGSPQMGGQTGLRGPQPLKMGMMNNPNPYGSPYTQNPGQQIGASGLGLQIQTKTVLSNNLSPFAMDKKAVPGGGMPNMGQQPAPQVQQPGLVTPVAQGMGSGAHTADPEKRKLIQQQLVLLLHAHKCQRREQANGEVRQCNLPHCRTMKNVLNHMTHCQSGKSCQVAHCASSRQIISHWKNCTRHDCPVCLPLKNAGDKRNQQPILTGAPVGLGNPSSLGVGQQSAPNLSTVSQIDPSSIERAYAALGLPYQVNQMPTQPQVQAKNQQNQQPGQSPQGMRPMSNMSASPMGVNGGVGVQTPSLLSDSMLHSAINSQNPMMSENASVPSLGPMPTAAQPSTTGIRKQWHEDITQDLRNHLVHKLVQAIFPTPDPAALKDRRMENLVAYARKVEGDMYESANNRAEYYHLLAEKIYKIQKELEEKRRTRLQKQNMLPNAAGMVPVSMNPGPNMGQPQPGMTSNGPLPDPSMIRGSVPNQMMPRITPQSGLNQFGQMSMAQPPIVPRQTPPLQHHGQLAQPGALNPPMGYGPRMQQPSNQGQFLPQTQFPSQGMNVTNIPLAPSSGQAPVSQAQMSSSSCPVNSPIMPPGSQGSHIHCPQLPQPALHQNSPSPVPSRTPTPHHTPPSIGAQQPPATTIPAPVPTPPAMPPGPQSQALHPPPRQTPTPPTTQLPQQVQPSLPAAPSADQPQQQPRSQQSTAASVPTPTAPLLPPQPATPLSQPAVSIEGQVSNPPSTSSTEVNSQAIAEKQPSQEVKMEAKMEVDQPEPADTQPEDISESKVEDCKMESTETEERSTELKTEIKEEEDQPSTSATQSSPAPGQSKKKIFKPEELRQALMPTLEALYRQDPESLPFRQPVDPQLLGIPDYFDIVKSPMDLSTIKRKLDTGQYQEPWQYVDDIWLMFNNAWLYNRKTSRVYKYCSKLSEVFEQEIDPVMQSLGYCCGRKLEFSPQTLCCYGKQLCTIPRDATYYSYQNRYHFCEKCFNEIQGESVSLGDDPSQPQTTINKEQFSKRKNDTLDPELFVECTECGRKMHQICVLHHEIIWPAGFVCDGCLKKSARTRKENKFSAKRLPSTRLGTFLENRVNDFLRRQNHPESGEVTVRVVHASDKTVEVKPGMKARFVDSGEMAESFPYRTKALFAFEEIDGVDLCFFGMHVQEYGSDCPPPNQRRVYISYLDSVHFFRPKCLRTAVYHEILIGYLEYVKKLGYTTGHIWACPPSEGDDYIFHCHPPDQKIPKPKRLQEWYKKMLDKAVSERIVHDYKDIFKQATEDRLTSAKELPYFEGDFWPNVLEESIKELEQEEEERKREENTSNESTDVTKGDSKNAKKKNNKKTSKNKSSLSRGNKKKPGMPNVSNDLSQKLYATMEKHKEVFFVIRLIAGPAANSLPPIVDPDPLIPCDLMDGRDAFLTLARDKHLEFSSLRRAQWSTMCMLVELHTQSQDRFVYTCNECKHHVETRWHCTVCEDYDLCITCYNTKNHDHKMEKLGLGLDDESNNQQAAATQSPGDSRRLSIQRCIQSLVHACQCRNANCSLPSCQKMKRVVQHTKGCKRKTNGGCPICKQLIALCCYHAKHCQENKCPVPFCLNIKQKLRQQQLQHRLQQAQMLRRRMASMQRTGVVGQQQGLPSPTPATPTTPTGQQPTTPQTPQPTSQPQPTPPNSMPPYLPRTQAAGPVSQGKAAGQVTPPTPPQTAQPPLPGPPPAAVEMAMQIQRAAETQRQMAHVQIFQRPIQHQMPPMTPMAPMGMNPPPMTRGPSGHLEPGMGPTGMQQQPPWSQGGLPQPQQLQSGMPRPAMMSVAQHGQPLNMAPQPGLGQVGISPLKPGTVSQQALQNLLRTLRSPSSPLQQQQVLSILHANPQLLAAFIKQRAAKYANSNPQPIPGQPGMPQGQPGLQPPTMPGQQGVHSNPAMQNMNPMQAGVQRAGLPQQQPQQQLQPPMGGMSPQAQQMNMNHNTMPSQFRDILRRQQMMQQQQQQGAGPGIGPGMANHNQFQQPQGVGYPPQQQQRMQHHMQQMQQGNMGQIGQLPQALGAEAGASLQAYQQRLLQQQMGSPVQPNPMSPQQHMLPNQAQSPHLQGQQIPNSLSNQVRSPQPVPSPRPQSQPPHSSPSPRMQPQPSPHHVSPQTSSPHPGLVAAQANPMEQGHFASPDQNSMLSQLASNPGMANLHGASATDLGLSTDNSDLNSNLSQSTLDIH
5'-AMP-activated protein kinase catalytic subunit alpha-1, sequence (Q13131 whole entry): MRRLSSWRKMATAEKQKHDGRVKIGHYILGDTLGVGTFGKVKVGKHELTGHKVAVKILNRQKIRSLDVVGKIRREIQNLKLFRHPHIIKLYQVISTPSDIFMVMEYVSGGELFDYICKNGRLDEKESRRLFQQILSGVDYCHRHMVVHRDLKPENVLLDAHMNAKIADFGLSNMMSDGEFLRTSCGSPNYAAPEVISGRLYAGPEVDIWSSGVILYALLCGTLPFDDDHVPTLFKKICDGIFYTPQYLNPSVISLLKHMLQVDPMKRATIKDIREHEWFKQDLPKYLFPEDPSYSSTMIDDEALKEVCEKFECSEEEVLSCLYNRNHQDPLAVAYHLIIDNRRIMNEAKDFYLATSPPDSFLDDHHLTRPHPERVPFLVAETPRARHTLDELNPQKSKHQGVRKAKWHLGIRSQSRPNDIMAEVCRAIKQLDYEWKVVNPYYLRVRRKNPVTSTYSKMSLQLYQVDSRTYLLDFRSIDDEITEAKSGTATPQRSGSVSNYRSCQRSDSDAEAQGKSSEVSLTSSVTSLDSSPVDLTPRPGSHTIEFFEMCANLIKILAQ

A word on the IC50: it is the concentration that inhibits the measured activity by half. `O=C(Nc1cccnn1)N1CC(C/C=C/c2cncc(Oc3ccc(C(F)(F)F)cn3)n2)C1` showed an IC50 in assay [1] greater than 100 µM.

As for `O=C(O)c1ccc(-c2coc3ncc(-c4ccccc4)cc23)cc1Cl`, the IC50 in assay [2] is greater than 27 µM.

With `C[C@H]1CCCN1Cc1nc2cc(NC(=O)c3ccc4cnccc4c3)ccc2[nH]1`, the IC50 on Protein AF-9 was found to be 0.254 µM; on Protein ENL, 0.15 µM.

In [3], `Cn1cncc1[C@@](O)(COc1ccc(C#N)cc1-c1ccc(OC(F)(F)F)cc1)c1ccc(C#N)cc1` [A-108] yielded an IC50 greater than 100 µM.

Regarding `CCC(=N\O)/C(C)=C/c1ccc(F)c(C)c1` [A-226], the IC50 in assay [4] is greater than 100 µM.

Molecule `CNC(=O)Nc1ccc2c(c1)[C@@]1(CC2)OC(=O)N(CC(=O)N(Cc2ccc(F)cc2)[C@@H](C)C(F)(F)F)C1=O` [A-486] displayed an IC50 in [5] greater than 10 µM.

For `Cn1cncc1[C@](O)(COc1ccc(C#N)cc1-c1ccc(OC(F)(F)F)cc1)c1ccc(C#N)cc1` [ABT-100], it took 0.05 nM to reach half-maximal inhibition in assay [6] (IC50).

As a reminder, the Kd is the concentration at which binding is half-saturated. Low values mean higher affinity, high ones lower affinity. The molecule `Cc1cc(NC(=O)c2cccc(S(F)(F)(F)(F)F)c2)cc(-n2ccn3nc(-c4cccnc4)cc23)c1` [BAY-309] had a Kd at Angiopoietin-1 receptor greater than 20 µM.

`CC1=C(C#N)C(c2ccc3[nH]nc(C)c3c2)C(C#N)=C(C)N1` [BAY-474]: the IC50 in assay [7] was less than 0.001 µM.

For `CC1=C(C#N)C(c2ccc3c(c2)c(NC(=O)c2ccccc2C)nn3C)C(C#N)=C(C)N1` [BAY-974], in [8], the IC50 is greater than 20 µM.

As for `CC(=O)N1CCC(c2ccc(C(=O)NC3=NCCN3)cc2C(F)(F)F)CC1` [BI 0054], the IC50 in assay [9] is greater than 10 µM.

The molecule `O=C(Nc1ccc(-n2nc(-c3cccnc3)cc2C(F)(F)F)cn1)c1ccc(-c2ccccc2)c(F)c1` [BI 2049] showed a 50% inhibitory concentration (IC50) in assay [10] greater than 3 µM.

For `Cn1nc(C(=O)NCc2ccc(C(=O)O)cc2)cc1-c1ccc2[nH]ccc2c1` [BI 4395], the half-inhibitory concentration (IC50) against Collagenase 3 is greater than 26 µM.

At Integrin alpha-L, `C[C@@]1(Cc2ccc(C#N)cc2)C(=O)N(c2cc(Cl)cc(Cl)c2)c2ncc(C(=O)NC3(c4nc(C5CCC5)no4)CC3)n21` [BI 9446] showed a Kd greater than 1 µM.

Consider `CCC(=O)N[C@@H]1CC[C@H](C(=O)N(C)c2ccc(-c3nc4ccccc4o3)cc2)C1` [BI 99990], for which, at Fatty acid synthase, the IC50 is greater than 3 µM.

`CC(=O)c1c(NS(C)(=O)=O)c2cc(-c3ccc(Cl)cc3)c(-c3ccc(Cl)cc3Cl)nc2n(C)c1=O` [MRL-CB1-NC] gave an IC50 at Cannabinoid receptor 1 of 0.0325 µM.

In [11], `C[C@H](c1ccc(F)cc1)N(Cc1ccc(Cl)c(C(=O)O)c1)C(=O)c1cnc2ccccc2c1` [PF-05257137] showed an IC50 greater than 10 µM.
